From patent publication US20240116892A1, “HETEROCYCLIC AMIDE AND UREA COMPOUNDS AS JAK2 INHIBITORS” (Ajax Therapeutics, Inc., priority 2022, published 2024)

target: JAK2 (JH1 domain-catalytic, Y1007F, Y1008F) kinase (Homo sapiens (Human), UniProt O60674, Y1007F/Y1008F); assay: JAK2 JH1 Domain Binding Assay; details: qPCR readout
Outline: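 Competitive binding format: test compound, DNA-tagged JAK2 JH1 (Y1007F/Y1008F; HEK293-expressed NFkB fusion) and ligand-coated magnetic beads incubated 1 h at room temperature. Kinase retained on beads released with 0.5 μmol/L non-biotinylated ligand, then measured by qPCR.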

Chain of JAK2 (JH1 domain-catalytic, Y1007F, Y1008F) kinase (O60674 849-1124 Y1007F/Y1008F): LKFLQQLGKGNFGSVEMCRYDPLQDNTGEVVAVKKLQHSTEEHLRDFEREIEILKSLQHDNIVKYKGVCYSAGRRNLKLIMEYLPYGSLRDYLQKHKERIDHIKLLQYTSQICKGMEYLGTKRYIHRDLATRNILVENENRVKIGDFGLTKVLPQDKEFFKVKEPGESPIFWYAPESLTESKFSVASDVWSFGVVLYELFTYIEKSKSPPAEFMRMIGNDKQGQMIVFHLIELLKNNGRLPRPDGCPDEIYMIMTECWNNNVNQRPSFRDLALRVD

Kd, 50 to 1000 nM:
COc1c[nH]c2ncc(N3CC[C@H](N(C)C(=O)Nc4cc(C(F)(F)F)cn(C)c4=O)C[C@@H]3C)nc12 [Example I-161-a, 1-((2S,4S)-1-(7-methoxy-5H-pyrrolo[2,3-b]pyrazin-2-yl)-2-methylpiperidin-4-yl)-1-methyl-3-(1-methyl-2-oxo-5-(trifluoromethyl)-1,2-dihydropyridin-3-yl)urea]
COCc1cc2nc(N3CC[C@H]4[C@H](C3)OCCN4C(=O)Nc3cc(C(F)(F)F)cn(C)c3=O)cnc2[nH]1 [Example I-164-a, (4aS,8aS)-6-(6-(methoxymethyl)-5H-pyrrolo[2,3-b]pyrazin-2-yl)-N-(1-methyl-2-oxo-5-(trifluoromethyl)-1,2-dihydropyridin-3-yl)octahydro-1/-pyrido[3,4-b][1,4]oxazine-1-carboxamide]

Kd, < 10 nM:
COCc1cc2nc(N3CC[C@@H](N(C)C(=O)Nc4cc(C(F)(F)F)cn(C)c4=O)[C@@H](C)C3)cnc2[nH]1 [Example I-159-b, 1-((3S,4R)-1-(6-(methoxymethyl)-5H-pyrrolo[2,3-b]pyrazin-2-yl)-3-methylpiperidin-4-yl)-1-methyl-3-(1-methyl-2-oxo-5-(trifluoromethyl)-1,2-dihydropyridin-3-yl)urea]
COCCOc1n[nH]c2ncc(N3CC[C@H]4[C@H](C3)OCCN4C(=O)Nc3cc(C(F)(F)F)cn(C)c3=O)cc12 [Example I-162-a, (4aS,8aS)-6-(3-(2-methoxyethoxy)-1H-pyrazolo[3,4-b]pyridin-5-yl)-N-(1-methyl-2-oxo-5-(trifluoromethyl)-1,2-dihydropyridin-3-yl)octahydro-1H-pyrido[3,4-b][1,4]oxazine-1-carboxamide]

Kd, 10 to 50 nM:
COc1c[nH]c2ncc(N3CC[C@@H](N(C)C(=O)Nc4cc(C(F)(F)F)cn(C)c4=O)C[C@H]3C)nc12 [Example I-161-b, 1-((2R,4R)-1-(7-methoxy-5H-pyrrolo[2,3-b]pyrazin-2-yl)-2-methylpiperidin-4-yl)-1-methyl-3-(1-methyl-2-oxo-5-(trifluoromethyl)-1,2-dihydropyridin-3-yl)urea]
COCCOc1n[nH]c2ncc(N3CC[C@@H]4[C@@H](C3)OCCN4C(=O)Nc3cc(C(F)(F)F)cn(C)c3=O)cc12 [Example I-162-b, (4aR,8aR)-6-(3-(2-methoxyethoxy)-1H-pyrazolo[3,4-b]pyridin-5-yl)-N-(1-methyl-2-oxo-5-(trifluoromethyl)-1,2-dihydropyridin-3-yl)octahydro-1H-pyrido[3,4-b][1,4]oxazine-1-carboxamide]
COc1c[nH]c2ncc(N3CC[C@H]4[C@H](C3)OCCN4C(=O)Nc3cc(C(F)(F)F)cn(C)c3=O)nc12 [Example I-163-a, (4aS,8aS)-6-(7-methoxy-5H-pyrrolo[2,3-b]pyrazin-2-yl)-N-(1-methyl-2-oxo-5-(trifluoromethyl)-1,2-dihydropyridin-3-yl)octahydro-1H-pyrido[3,4-b][1,4]oxazine-1-carboxamide]
COc1c[nH]c2ncc(N3CC[C@@H]4[C@@H](C3)OCCN4C(=O)Nc3cc(C(F)(F)F)cn(C)c3=O)nc12 [Example I-163-b, (4aR,8aR)-6-(7-methoxy-5H-pyrrolo[2,3-b]pyrazin-2-yl)-N-(1-methyl-2-oxo-5-(trifluoromethyl)-1,2-dihydropyridin-3-yl)octahydro-1H-pyrido[3,4-b][1,4]oxazine-1-carboxamide]
COCc1cc2nc(N3CC[C@@H]4[C@@H](C3)OCCN4C(=O)Nc3cc(C(F)(F)F)cn(C)c3=O)cnc2[nH]1 [Example I-164-b, (4aR,8aR)-6-(6-(methoxymethyl)-5H-pyrrolo[2,3-b]pyrazin-2-yl)-N-(1-methyl-2-oxo-5-(trifluoromethyl)-1,2-dihydropyridin-3-yl)octahydro-1H-pyrido[3,4-b][1,4]oxazine-1-carboxamide]
